Results taken from article PMC11054528, “Evaluation of Physicochemical Properties of Ipsapirone Derivatives Based on Chromatographic and Chemometric Approaches” (Molecules, 2024).

Tests used:
[1] = target: human serum albumin (HSA) (Homo sapiens, UniProt P02768); test: HSA-HPLC, biomimetic chromatography on Chiralpak HSA column; format: in vitro ADME; parameters: purchased Daicel Chiral Technologies, West Chester, PA, USA; conditions: for LogKHSA: pH 7.4; for %HSA: pH 7.4, recalculated from logKHSA
Description: Utilizing columns modified by plasma proteins, such as human serum albumin (HSA), allows for estimating binding to plasma protein (PPB). Generally, PPB affects drug pharmacokinetics, including distribution, half-life, and clearance. While lipophilicity is a well-known factor in determining PPB, it should also be considered in early drug discovery. In general, more lipophilic compounds tend to have higher percentages of PP due to nonspecific interactions with proteins. However, hydrophilic compounds can also bind strongly to PP through […] and electrostatic interactions by binding in protein pockets.
For HSA-HPLC experiments, the column was Chiralpak® HSA (100 × 4 mm; 5 µm with safety guard column; Daicel Chiral Technologies, West Chester, PA, USA). The column temperature was set to 30 °C. The same phase A as in the IAM-HPLC case was used, and the mobile phase B was isopropanol (i-PrOH). The linear gradient from 0 to 20% i-PrOH was applied from 0 to 15 min, held at 20% i-PrOH for 12 min, and then returned to pure ammonium acetate solution. The mobile phase flow rate was 0.9 mL/min throughout the experiment. Three minutes of column recalibration was applied between each run. The retention times were collected at wavelengths between 190 and 300 nm, and the injection volume was 10 μL.

[2] = Fast gradient RP-HPLC on C18 column (CHI lipophilicity); format: physicochemical; conditions: for CHIC18 pH = 2.6 / CHIC18 pH = 7.4 / CHIC18 pH = 10.6: C18 column; for CHI LogP: from chromatographically determined CHI on nonionized forms (pH 10.6), CHI LogP = 0.054 × CHI − 1.467
Description: Considering the significant differences in the calculations obtained, the next step of our investigation considered the determination of lipophilicity using a chromatographic approach. Among the available protocols, the fast gradient approach developed by Valko was chosen because it enables the assessment of lipophilicity from a single chromatographic measurement. In addition, this approach enables the determination of the acid/basic properties of molecules through the addition of experiments under different pH conditions.
Therefore, the CHI under pH10.6 can be considered and converted to chromatographically determined LogP, called CHI LogP. A cluster analysis (CA) was performed to compare chromatographically determined and calculated lipophilicity. A CA can be used for the visualization of similarities and differences between studied objects, in this case, lipophilic parameters. The obtained results clearly indicate that significant differences between theoretical and experimental data occurred, and they formed two separate groups (Figure 1). The differences are also visible on the calculated correlation matrix (Figure 2).
For RP-HPLC experiments, a C18 Hypersil GOLD^TM (50 mm × 4.6 mm; 5.0 µm with a guard column; Thermo Scientific, Waltham, MA, USA) column was applied. The column temperature was set to 40 °C. Three water solutions were used as mobile phase A: acetic acid at pH 2.6, […] at pH 7.4, and 50 mM ammonium acetate at pH 10.5. Mobile phase B was acetonitrile (ACN). The linear gradient from 2 to 98% ACN was applied from 0 to 5.25 min and held at 98% ACN for 1.75. The mobile phase flow rate was 1.5 mL/min throughout the experiment.

[3] = IAM-HPLC, immobilized artificial membrane chromatography (affinity to phospholipids); format: physicochemical; parameters: scale not given here; conditions: IAM.PC.DD2 column, pH 7.4
Description: In considering that lipophilicity is a known factor influencing passive diffusion across the BBB, this is an important observation. The affinity to phospholipids can also be determined using one-gradient protocols and the IAM column. CHIIAM can be used as a cut-off point to indicate the potential for promiscuous binding and interference with phospholipids.
The immobilized artificial membrane column (IAM.PC.DD2, 10 × 4.6 mm × 10.0 µm with a guard column (Regis Technologies; Morton Grove, IL, USA) was used for IAM-HPLC experiments. The column temperature was set to 30 °C. Similar to RP-HPLC, mobile phase A was a 50 mM ammonium acetate at pH 7.4, and mobile phase B was acetonitrile. The linear gradient from […] ACN was applied from 0 to 5.25 min and held at 98% ACN for 0.5 min at a constant flow rate of 1.5 mL/min.

Chain of human serum albumin (HSA) (P02768 25-609): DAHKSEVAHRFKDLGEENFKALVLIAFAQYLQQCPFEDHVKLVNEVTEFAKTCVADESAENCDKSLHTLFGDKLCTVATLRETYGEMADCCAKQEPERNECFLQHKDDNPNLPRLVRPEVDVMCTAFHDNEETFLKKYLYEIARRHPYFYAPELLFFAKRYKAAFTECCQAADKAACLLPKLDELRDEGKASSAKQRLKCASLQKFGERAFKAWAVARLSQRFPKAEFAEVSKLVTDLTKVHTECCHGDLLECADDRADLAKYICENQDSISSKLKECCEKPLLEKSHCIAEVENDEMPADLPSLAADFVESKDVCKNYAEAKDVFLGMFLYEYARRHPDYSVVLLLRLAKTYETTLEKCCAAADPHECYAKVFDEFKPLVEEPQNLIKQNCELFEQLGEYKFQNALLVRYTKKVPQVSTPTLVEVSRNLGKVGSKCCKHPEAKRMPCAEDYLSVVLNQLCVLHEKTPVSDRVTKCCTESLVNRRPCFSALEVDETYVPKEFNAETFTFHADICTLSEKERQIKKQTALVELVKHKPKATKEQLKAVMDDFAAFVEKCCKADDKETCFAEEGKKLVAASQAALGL

| Compound | LogKHSA [1] | %HSA [1] [%] | CHIC18 pH = 2.6 [2] | CHIC18 pH = 7.4 [2] | CHIC18 pH = 10.6 [2] | CHI LogP [2] | CHIIAM [3] | affinity to HSA compared with reference diclofenac [1] |
| --- | --- | --- | --- | --- | --- | --- | --- | --- |
| COc1ccccc1N1CCN(CCCCN2C(=O)c3ccccc3S2(=O)=O)CC1 [molecule 2] | 1.72 | 99.13 | 60.08 | 110.90 | 109.41 | 4.44 | 46.90 |  |
| O=C1c2ccccc2S(=O)(=O)N1CCCCN1CCN(c2cccc(Cl)c2Cl)CC1 [molecule 3] | 0.52 | 77.60 | 49.19 | 78.80 | 87.69 | 3.27 | 35.71 |  |
| O=C1c2ccccc2S(=O)(=O)N1CCCCN1CCN(c2ccc(Cl)cc2)CC1 [molecule 4] | 1.32 | 96.38 | 56.31 | 100.82 | 100.70 | 3.97 | 42.61 |  |
| O=C1c2ccccc2S(=O)(=O)N1CCCCCN1CCN(c2ccccc2)CC1 [molecule 5] | 0.84 | 88.23 | 52.20 | 89.50 | 95.60 | 3.70 | 39.09 |  |
| COc1ccccc1N1CCN(CCCCCN2C(=O)c3ccccc3S2(=O)=O)CC1 [molecule 6] | 0.68 | 83.59 | 52.94 | 79.45 | 91.77 | 3.49 | 38.03 |  |
| O=C1c2ccccc2S(=O)(=O)N1CCCCCN1CCN(c2cccc(Cl)c2Cl)CC1 [molecule 7] | 1.77 | 99.31 | 72.79 | 112.26 | 112.92 | 4.63 | 48.28 |  |
| O=C1c2ccccc2S(=O)(=O)N1CCCCCN1CCN(c2ccc(Cl)cc2)CC1 [molecule 8] | 1.53 | 98.11 | 97.99 | 101.36 | 100.81 | 3.98 | 44.30 |  |
| O=C1c2ccccc2S(=O)(=O)N1CCCCCN1CCN(c2ncccn2)CC1 [molecule 9] | 0.58 | 79.78 | 48.71 | 74.93 | 81.12 | 2.91 | 34.40 |  |
| O=C1c2ccccc2S(=O)(=O)N1CCCCCN1CCN(c2ccccn2)CC1 [molecule 10] | 0.72 | 84.71 | 38.96 | 76.74 | 84.51 | 3.10 | 35.73 |  |
| O=C1c2ccccc2S(=O)(=O)N1CCCCCN1CCN(c2cccc3ccccc23)CC1 [molecule 11] | 1.67 | 98.90 | 63.51 | 104.83 | 111.43 | 4.55 | 47.26 |  |
| O=C1c2ccccc2S(=O)(=O)N1CCCCCCN1CCN(c2ccccc2)CC1 [molecule 12] | 1.00 | 91.87 | 55.26 | 93.84 | 100.78 | 3.98 | 41.59 |  |
| COc1ccccc1N1CCN(CCCCCCN2C(=O)c3ccccc3S2(=O)=O)CC1 [molecule 13] | 0.42 | 73.28 | 54.89 | 84.12 | 96.78 | 3.76 | 40.54 |  |
| COc1cccc(N2CCN(CCCCCCN3C(=O)c4ccccc4S3(=O)=O)CC2)c1 [molecule 14] | 0.93 | 90.46 | 55.41 | 94.73 | 99.75 | 3.92 | 41.42 |  |
| COc1ccc(N2CCN(CCCCCCN3C(=O)c4ccccc4S3(=O)=O)CC2)cc1 [molecule 15] | 0.65 | 82.67 | 55.04 | 87.50 | 96.78 | 3.76 | 40.04 |  |
| O=C1c2ccccc2S(=O)(=O)N1CCCCCCN1CCN(c2cccc(Cl)c2)CC1 [molecule 16] | 1.71 | 99.06 | 61.89 | 108.61 | 111.92 | 4.58 | 46.73 |  |
| O=C1c2ccccc2S(=O)(=O)N1CCCCCCN1CCN(c2ccc(Cl)cc2)CC1 [molecule 17] | 1.57 | 98.36 | 61.34 | 106.56 | 110.38 | 4.49 | 46.32 |  |
| O=C1c2ccccc2S(=O)(=O)N1CCCCCCN1CCN(c2ccc(Cl)c(Cl)c2)CC1 [molecule 18] | 2.27 |  | 65.39 | 119.04 | 118.39 | 4.93 | 50.19 | higher affinity to reference diclofenac |
| O=C1c2ccccc2S(=O)(=O)N1CCCCCCN1CCN(c2cccc(C(F)(F)F)c2)CC1 [molecule 19] | 1.85 | 99.61 | 63.86 | 113.75 | 114.05 | 4.69 | 46.84 |  |
